# Measured values as given in patent US8648105B2, “Diarylthiohydantoin compounds” (The Regents of the University of California, priority 2006, dated 2014).
# Entries after “also recorded” stand apart in the source; their conditions may differ.
# Experiments:
# [1] = system: LIAR cell line; assay: Luciferase activity of the LIAR cell line (FIG. 25); assay type: cell-based; conditions: 125 nmol to 1000 nmol
# Source text: FIG. 25 is a graph of luciferase activity of the LIAR cell line dosed with various compounds administered at concentrations ranging from 125 nmol to 1000 nmol.
# The inventors have determined that what might appear to be a small change in the structure of hydantoin compounds may result in a large change in that compound's performance in treating prostate cancer.
# [2] = target: T1, androgen receptor (Homo sapiens, UniProt P10275, T878A); conditions: 10 uM, 24 hours, with or without 100 pM R1881, LNCaP
# T1 sequence (P10275 1-920 T878A): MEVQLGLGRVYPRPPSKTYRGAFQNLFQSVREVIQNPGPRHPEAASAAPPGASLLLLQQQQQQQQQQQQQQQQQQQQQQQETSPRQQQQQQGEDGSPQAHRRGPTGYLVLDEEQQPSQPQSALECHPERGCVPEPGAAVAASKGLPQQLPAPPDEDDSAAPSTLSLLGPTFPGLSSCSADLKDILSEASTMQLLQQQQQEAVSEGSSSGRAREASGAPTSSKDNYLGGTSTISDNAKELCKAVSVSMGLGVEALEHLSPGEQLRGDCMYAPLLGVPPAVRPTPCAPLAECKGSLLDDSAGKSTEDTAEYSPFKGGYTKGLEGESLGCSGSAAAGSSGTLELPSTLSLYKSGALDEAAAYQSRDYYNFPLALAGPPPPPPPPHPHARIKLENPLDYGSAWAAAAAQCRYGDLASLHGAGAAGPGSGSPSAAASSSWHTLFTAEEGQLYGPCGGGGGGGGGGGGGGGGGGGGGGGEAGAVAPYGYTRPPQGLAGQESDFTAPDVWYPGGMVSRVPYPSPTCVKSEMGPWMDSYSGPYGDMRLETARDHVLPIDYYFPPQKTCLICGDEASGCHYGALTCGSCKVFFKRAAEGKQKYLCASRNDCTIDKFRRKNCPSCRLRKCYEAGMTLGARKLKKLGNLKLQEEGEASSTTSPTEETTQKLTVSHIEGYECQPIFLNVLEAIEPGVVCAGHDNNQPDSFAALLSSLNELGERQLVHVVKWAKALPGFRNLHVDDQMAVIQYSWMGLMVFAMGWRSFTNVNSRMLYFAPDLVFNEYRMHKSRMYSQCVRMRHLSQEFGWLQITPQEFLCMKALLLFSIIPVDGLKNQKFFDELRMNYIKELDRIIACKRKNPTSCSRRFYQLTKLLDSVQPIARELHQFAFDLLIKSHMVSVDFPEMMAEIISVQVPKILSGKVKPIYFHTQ
# [3] = target: T2, androgen receptor (AR) and RNA polymerase II (Pol II) (Homo sapiens, UniProt P10275, T878A); conditions: 10 uM, 6 hours, LNCaP
# T2 sequence (P10275 1-920 T878A): T1 sequence (P10275 1-920 T878A)
# Experimental: LNCaP (ATCC) cells were plated in full serum. On the day of the experiment, the plate was washed once with 1×PBS and 5% CSS was added for 3 days. […] Each of these compounds was added for 6 hours. In a fourth set of experiments, a control, no additional compound was added (−). 6 hours timepoint was run at 28 cycles.
# [4] = target: T1, androgen receptor; conditions: 10 uM (R1881 1 nM), LNCaP
# [5] = system: tumor; assay: Dose regimens of NC53 on tumor volume and luciferase photon emission (FIGS. 17, 18); assay type: in vivo; conditions: for tumor size: FIG. 17
# Source text: FIG. 17 illustrates that under treatment with vehicle solution, tumors continued to increase in size.
structure (smiles),measurement,setting,value
"CNC(=O)c1ccc(N2C(=S)N(c3ccc(C#N)c(C(F)(F)F)c3)C(=O)C23CCC3)cc1F [NC53, N-methyl-4-[7-(4-cyano-3-trifluoromethylphenyl)-8-oxo-6-thioxo-5,7-diaza-spiro[3.4]oct-5-yl]-2-fluorobenzamide]",luciferase activity (comparison),[1],less than the luciferase activity upon exposure to NC98
same,androgen receptor protein level,[2],destabilized androgen receptor proteins; also recorded: androgen receptor protein is degraded
same,AR and Pol II recruitment to PSA enhancer and PSA promoter,[3],prevented androgen receptor (AR) recruitment and RNA polymerase II (Pol II) recruitment to PSA enhancer and to PSA promoter
same,androgen receptor nuclear translocation,[4],inhibited androgen receptor nuclear translocation
same,tumor size,[5]; 1 mg per kg body weight per day,"the rate of tumor increase decreased, and the size of the tumor appeared to be stabilizing after about 17 days"
same,tumor size,[5]; 10 mg per kg body weight per day,tumor size decreased with time
same,photon emission associated with luciferase activity,"[5]; 10 mg per kg body weight per day, day 17 vs day 0, FIG. 18",photon emission associated with luciferase activity decreased
